The text below walks through data of US20200360331A1, “COMPOSITIONS COMPRISING 15-HEPE AND/OR 15-HETrE AND METHODS OF TREATING OR PREVENTING CARDIOMETABOLIC DISEASE, METABOLIC SYNDROME, AND/OR RELATED DISEASES” (Afimmune Limited, priority 2019, published 2020).

The subject of assay [1] is UUO mice. The assay can be described thus: UUO study: kidney hydroxyproline content. It counts as in vivo, C57BL/6 mice. The protocol: (§1) UUO Surgery: On day 0 of the study, UUO surgery was performed on mice under pentobarbital sodium anesthesia. The mouse's hair was first shaved and then abdomen cut open to exteriorize the mouse's left ureter. The ureter was ligated 4-0 nylon sutures at two points. The mouse's peritoneum and skin were then closed with sutures, and the mouse transferred to a clean cage until recovered from the anesthesia. Sham operated mice had their left ureter exposed but not ligated.
Measurement of Kidney Biochemistry: To quantify kidney hydroxyproline content, frozen left kidney samples were processed by an alkaline-acid hydrolysis method as follows: kidney samples were dissolved in 2 normal (N) sodium hydroxide (NaOH) at 65° C. and autoclaved at 121° C. for 20 minutes. The lysed samples (400 μL) were acid-hydrolyzed with 400 μL of 6N hydrochloride acid (HCl) at 121° C. for 20 minutes, and neutralized with 400 μL of 4N NaOH containing 10 mg/mL of activated carbon. An AC buffer (e.g., 2.2M acetic acid/0.48M citric acid, 400 μL) was added to the samples, followed by centrifugation to collect the supernatant. A standard curve of hydroxyproline was constructed with serial dilutions of trans-4-hydroxy-L-proline (Sigma-Aldrich, USA) starting at 16 μg/mL. The prepared samples and standards (e.g., each 400 μL) were mixed with 400 μL chloramine T solution (Wako Pure Chemical Industries, Japan) and incubated for 25 minutes at room temperature. The samples were then mixed with Ehrlich's solution (e.g., 400 μL) and heated at 65° C. for 20 minutes to develop the color. After samples were cooled on ice and centrifuged to remove precipitates, the optical density of each supernatant was measured at 560 nanometers (nm). The concentrations of hydroxyproline were calculated from the hydroxyproline standard curve. Protein concentrations of kidney samples were determined using a bicinchoninic (BCA) protein assay kit (Thermo Fisher Scientific, USA) and used to normalize the calculated hydroxyproline values. Kidney hydroxyproline contents were expressed as microgram (μg) per mg protein.

Another assay relates to TIMP-1. In words: BDL study: quantitative RT-PCR of liver, TIMP-1. The assay is classed as in vivo, C57BL/6J mice. To be noted: BDL mice liver. The protocol:
Quantitative RT-PCR: Total ribonucleic acid (RNA) was extracted from liver samples using RNAiso (Takara Bio, Japan) according to the manufacturer's instructions. One μg of RNA was reverse-transcribed using a reaction mixture containing 4.4 mM magnesium chloride (MgCl2) (F. Hoffmann-La Roche, Switzerland), 40 U RNase inhibitor (Toyobo, Japan), 0.5 mM dNTP (Promega, USA), 6.28 μM random hexamer (Promega), 5× first strand buffer (Promega), 10 mM dithiothreitol (Invitrogen, USA) and 200 U MMLV-RT (Invitrogen) in a final volume of 20 μL. The reaction was carried out for 1 hour at 37° C., followed by 5 minutes at 99° C. Real-time PCR was performed using real-time PCR DICE and TB Green™ Premix Ex Taq™ II (Takara Bio). To calculate the relative mRNA expression level, the expression of each gene (α-SMA, TIMP-1, TGF-β and Collagen Type 1) was normalized to that of reference gene 36B4 (gene symbol: Rplp0). Information regarding the PCR-primer sets and the plate layout are described in Tables 8 and 9.

Assay [2] deals with TGF-β-stimulated intracellular signaling (SMAD2/3 phosphorylation). In words: TGF-β-stimulated SMAD2/3 phosphorylation in LX2 liver stellate cells. The assay is classed as cell-based, human. To be noted: 0 μM to 100 μM for 24 hours, then 30 min TGF-β stimulation, listed as 15-HEPE.
Assay [3] deals with UUO mice. The assay can be described thus: UUO study: Sirius red staining of kidney sections, fibrosis area. It counts as in vivo, C57BL/6 mice. To be noted: for fibrosis area compared with the Vehicle group: Mann-Whitney U test (p<0.1); for Sirius red-positive area / Sirius red-positive area (%) _Median: kidney. As for the experimental part:
as §1
Histopathological analysis: To visualize collagen deposition, kidney sections were stained using picro-Sirius red solution (Waldeck, Germany). For quantification of interstitial fibrosis area, bright field images in the corticomedullary region were captured using a digital camera (e.g., DFC295; Leica Microsystems, Germany) at 200-fold magnification, and the positive areas in 5 fields/section were measured using ImageJ software (National Institute of Health, USA).

Assay [4] can be described thus: UUO study: body weight, kidney weight, general condition. The assay is classed as in vivo. To be noted: UUO mice. The protocol: UUO Surgery: On day 0 of the study, UUO surgery was performed on mice under pentobarbital sodium anesthesia. The mouse's hair was first shaved and then abdomen cut open to exteriorize the mouse's left ureter. The ureter was ligated 4-0 nylon sutures at two points. The mouse's peritoneum and skin were then closed with sutures, and the mouse transferred to a clean cage until recovered from the anesthesia. Sham operated mice had their left ureter exposed but not ligated. […]
Animals: Seven-week-old female C57BL/6 mice (i.e., animals) were obtained from Japan SLC, Inc. (Japan) and were housed and fed with a normal diet (CE-2; CLEA Japan, Japan) under controlled conditions. The animals were maintained in a specific-pathogen free (SPF) facility under controlled conditions of temperature (e.g., 23±2° C.), humidity (e.g., 45±10%), lighting (e.g., 12-hour artificial light and dark cycles; light from 8:00 to 20:00) and air exchange. A high pressure was maintained in the experimental room to prevent contamination of the facility. The animals were housed in TPX cages (CLEA Japan) with a maximum of 4 mice per cage. Sterilized Paper-Clean (Japan SLC) was used for bedding and replaced once a week. Sterilized solid normal diet was provided ad libitum, being placed in a metal lid on the top of the cage. Pure water was also provided ad libitum from a water bottle equipped with a rubber stopper and a sipper tube. Water bottles were replaced once a week, cleaned, and sterilized in an autoclave and reused. Mice were identified by ear punch and each cage was labeled with a specific identification code.
Animal Monitoring and Sacrifice: The viability, clinical signs and behavior for the mice were monitored daily. Individual body weight was measured daily before treatment during the treatment period. […] The animals were sacrificed by exsanguination through direct cardiac puncture under isoflurane anesthesia (Pfizer Inc.) at Day 14.

The mark [5] stands for this setting: 50 mg/kg PO QD Day 0-13, Day 14.
Setting [6] is: 500 mg/kg PO QD Day 0-13, Day 14.

SMILES strings stand for the structures. “Also recorded” adds a separate entry of the source.

Regarding `CC/C=C\CC(O)/C=C/C=C\C/C=C\C/C=C\CCCC(=O)O` (centres unmarked) [DS102, 15-hydroxy-eicosa-5Z,8Z,11Z,13E,17Z-pentaenoic acid], the “kidney hydroxyproline contents compared with the Vehicle group” value in the assay on UUO mice [1] (50 mg/kg) is “significant decrease”; in the assay with UUO mice [1] (500 mg/kg), “significant decreases”. The Kidney hydroxyproline with UUO mice [1] (setting [5]) is 8.47 ± 2.08 μg/mg total protein; in the assay on UUO mice [1] (setting [6]), 8.59 ± 1.99 μg/mg total protein. The “TIMP-1 mRNA expression level compared with the Vehicle group” value with TIMP-1 (500 mg/kg) is given as “tended to decrease; also recorded: trend approaching significance”. Further, the “TIMP-1 mRNA expression level vs Vehicle group” value with TIMP-1 (DS102 treatment groups) is listed as “no significant differences”. Also, the TIMP-1 gene expression with TIMP-1 (relative mRNA normalized to 36B4, 50 mg/kg PO QD Day 0-13) was 43.82 ± 26.19; in the assay on TIMP-1 (relative mRNA normalized to 36B4, 250 mg/kg PO QD Day 0-13) it was 30.65 ± 16.80; in the assay on TIMP-1 (relative mRNA normalized to 36B4, 500 mg/kg PO QD Day 0-13) it was 16.09 ± 10.16. In addition, the “TGF-β-stimulated intracellular signaling (SMAD2/3 phosphorylation)” value in assay [2] is “inhibits TGF-β-stimulated intracellular signaling; also recorded: inhibited TGF-β induced intracellular signaling (SMAD2/3)”. The “fibrosis area compared with the Vehicle group” value in the assay on UUO mice [3] (50 mg/kg) and in the assay on UUO mice [3] (500 mg/kg) was “tended to decrease; also recorded: reduction trend” in each case. The values for the Sirius red-positive area in the assay on UUO mice [3] (setting [5]) and with UUO mice [3] (setting [6]) were 5.01 ± 3.11% and 4.01 ± 1.92%, respectively. Besides, the “Sirius red-positive area (%) _Median” value in the assay with UUO mice [3] (50 mg/kg PO QD Day 0-13, Day 14, median) is 4.19 ± 3.33%; in the assay with UUO mice [3] (500 mg/kg PO QD Day 0-13, Day 14, median) it was 3.08 ± 1.16%. Moreover, the “Left Kidney Weight” value in assay [4] (setting [5]) worked out at 469 ± 60 mg; in assay [4] (setting [6]), 487 ± 108 mg. Also, the “Right Kidney Weight” value in assay [4] (setting [5]) came to 133 ± 10 mg; in assay [4] (setting [6]), 136 ± 6 mg.
